# Data reported in patent US8309581B2, “Benzimidazole derivatives” (Hoffmann-La Roche Inc., priority 2009, dated 2012).
# Target: T1, FXR ligand binding domain (Homo sapiens, UniProt Q96RI1)
# T1 construct: made in house; host or cells: E. coli BL21 (pLysS)
# T1 sequence (Q96RI1 193-472 isoform Q96RI1-2): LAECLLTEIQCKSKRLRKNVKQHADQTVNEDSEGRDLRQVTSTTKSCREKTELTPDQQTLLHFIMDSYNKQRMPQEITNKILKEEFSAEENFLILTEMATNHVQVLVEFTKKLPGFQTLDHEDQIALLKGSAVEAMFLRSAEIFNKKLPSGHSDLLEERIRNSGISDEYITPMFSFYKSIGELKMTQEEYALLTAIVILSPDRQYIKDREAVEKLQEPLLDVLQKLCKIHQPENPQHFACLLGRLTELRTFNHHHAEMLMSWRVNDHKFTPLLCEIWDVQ
# Assay: Radioligand Binding Assay (scintillation proximity radioligand displacement)
# Details: GST-FXR LBD fusion protein on SPA beads, test compound 6×10^−9 M to 2.5×10^−5 M
# Description: The following tests were carried out in order to determine the activity of the compounds of formula (I). Background information on the binding assay can be found in: Nichols J S et al. “Development of a scintillation proximity assay for peroxisome proliferator-activated receptor gamma ligand binding domain”, (1998) Anal. Biochem. 257: 112-119.
# Bacterial and mammalian expression vectors were constructed to produce glutathione-s-transferase (GST) and Gal4 DNA binding domain (GAL) proteins fused to the ligand binding domain (LBD) of human FXR (aa 193-473). To accomplish this, the portions of the sequences encoding the FXR LBD were amplified by polymerase chain reaction (PCR) from a full-length clone by PCR and then subcloned into the plasmid vectors. The final clone was verified by DNA sequence analysis.
# The induction, expression, and subsequent purification of GST-LBD fusion protein was performed in E. coli strain BL21 (pLysS) cells by standard methods (Current Protocols in Molecular Biology, Wiley Press, ed. Ausubel et al.).
# Radioligand Binding Assay
# Binding of test substances to the FXR ligand binding domain was assessed in a radioligand displacement assay. The assay was performed in a buffer consisting of 50 mM Hepes, pH 7.4, 10 mM NaCl, 5 mM MgCl2, 0.01% CHAPS. For each reaction well in a 96-well plate, 40 nM of GST-FXR LBD fusion protein was bound to […] glutathione ytrium silicate SPA beads (PharmaciaAmersham) in a final volume of […] by shaking. A radioligand (e.g., 20 nM of 2,N-dicyclohexyl-2-[2-(2,4 dimethoxy-phenyl)-benzoimidazol-1-yl]-acetamide) and test compounds were added, and scintillation proximity counting was performed. All binding assays were performed in 96-well plates and the amount of bound ligand was measured on a Packard TopCount using OptiPlates (Packard). Dose response curves were performed within a range of test compound concentrations from 6×10^−9 M to 2.5×10^−5 M and IC50 values were calculated.
row,SMILES,IC50
1,"Fc1cc2nc(-c3cccnc3OCC3CCCC3)n(CC3CCCCC3)c2cc1F [Example 1, 1-Cyclohexylmethyl-2-(2-cyclopentylmethoxy-pyridin-3-yl)-5,6-difluoro-1H-benzoimidazole]",200 nM
2,"Fc1cc2nc(-c3cccnc3OCC3CC3)n(CC3CCCCC3)c2cc1F [Example 2, 1-Cyclohexylmethyl-2-(2-cyclopropylmethoxy-pyridin-3-yl)-5,6-difluoro-1H-benzoimidazole]",2900 nM
3,"Fc1cc2nc(-c3cccnc3OCc3ccccc3Cl)n(CC3CCCCC3)c2cc1F [Example 3, 2-[2-(2-Chloro-benzyloxy)-pyridin-3-yl]-1-cyclohexylmethyl-5,6-difluoro-1H-benzoimidazole]",700 nM
4,"O=C(O)c1ccc(COc2ncccc2-c2nc3cc(F)c(F)cc3n2CC2CCCCC2)cc1 [Example 4, 4-[3-(1-Cyclohexylmethyl-5,6-difluoro-1H-benzoimidazol-2-yl)-pyridin-2-yloxymethyl]-benzoic acid]",5800 nM
5,"O=C(O)COc1ccc(COc2ncccc2-c2nc3cc(F)c(F)cc3n2CC2CCCCC2)cc1 [Example 5, {4-[3-(1-Cyclohexylmethyl-5,6-difluoro-1H-benzoimidazol-2-yl)-pyridin-2-yloxymethyl]-phenoxy}-acetic acid]",12100 nM
6,"Fc1cc2nc(-c3cccnc3OCc3ccccc3Cl)n(Cc3ccccc3)c2cc1F [Example 6, 1-Benzyl-2-[2-(2-chloro-benzyloxy)-pyridin-3-yl]-5,6-difluoro-1H-benzoimidazole]",1800 nM
7,"Fc1cc2nc(-c3cccnc3OCC3CCCC3)n(Cc3ccccc3)c2cc1F [Example 7, 1-Benzyl-2-(2-cyclopentylmethoxy-pyridin-3-yl)-5,6-difluoro-1H-benzoimidazole]",3800 nM
8,"Fc1cc2nc(-c3cccnc3OCC3CC3)n(Cc3ccccc3)c2cc1F [Example 8, 1-Benzyl-2-(2-cyclopropylmethoxy-pyridin-3-yl)-5,6-difluoro-1H-benzoimidazole]",5600 nM
9,"O=C(O)c1ccc(COc2ncccc2-c2nc3cc(F)c(F)cc3n2Cc2ccccc2)cc1 [Example 9, 4-[3-(1-Benzyl-5,6-difluoro-1H-benzoimidazol-2-yl)-pyridin-2-yloxymethyl]-benzoic acid]",10500 nM
10,"O=C(O)COc1ccc(COc2ncccc2-c2nc3cc(F)c(F)cc3n2Cc2ccccc2)cc1 [Example 10, {4-[3-(1-Benzyl-5,6-difluoro-1H-benzoimidazol-2-yl)-pyridin-2-yloxymethyl]-phenoxy}-acetic acid]",12800 nM
11,"Fc1cc2nc(-c3cccnc3OCc3ccccc3Cl)n(Cc3cccc(Cl)c3)c2cc1F [Example 11, 1-(3-Chloro-benzyl)-2-[2-(2-chloro-benzyloxy)-pyridin-3-yl]-5,6-difluoro-1H-benzoimidazole]",800 nM
12,"Fc1cc2nc(-c3cccnc3OCC3CCCC3)n(Cc3cccc(Cl)c3)c2cc1F [Example 12, 1-(3-Chloro-benzyl)-2-(2-cyclopentylmethoxy-pyridin-3-yl)-5,6-difluoro-1H-benzoimidazole]",1500 nM
13,"Fc1cc2nc(-c3cccnc3OCC3CC3)n(Cc3cccc(Cl)c3)c2cc1F [Example 13, 1-(3-Chloro-benzyl)-2-(2-cyclopropylmethoxy-pyridin-3-yl)-5,6-difluoro-1H-benzoimidazole]",3600 nM
14,"O=C(O)c1ccc(COc2ncccc2-c2nc3cc(F)c(F)cc3n2Cc2cccc(Cl)c2)cc1 [Example 14, 4-{3-[1-(3-Chloro-benzyl)-5,6-difluoro-1H-benzoimidazol-2-yl]-pyridin-2-yloxymethyl}-benzoic acid]",5200 nM
15,"O=C(O)COc1ccc(COc2ncccc2-c2nc3cc(F)c(F)cc3n2Cc2cccc(Cl)c2)cc1 [Example 15, (4-{3-[1-(3-Chloro-benzyl)-5,6-difluoro-1H-benzoimidazol-2-yl]-pyridin-2-yloxymethyl}-phenoxy)-acetic acid]",2600 nM
16,"O=C(O)CCc1ccc(Cn2c(-c3cccnc3OCC3CC3)nc3cc(F)c(F)cc32)cc1 [Example 16, 3-{4-[2-(2-Cyclopropylmethoxy-pyridin-3-yl)-5,6-difluoro-benzoimidazol-1-ylmethyl]-phenyl}-propionic acid]",66100 nM
17,"O=C(O)CCc1ccc(Cn2c(-c3cccnc3OCc3ccccc3Cl)nc3cc(F)c(F)cc32)cc1 [Example 17, 3-(4-{2-[2-(2-Chloro-benzyloxy)-pyridin-3-yl]-5,6-difluoro-benzoimidazol-1-ylmethyl}-phenyl)-propionic acid]",10200 nM
18,"O=C(O)CCc1ccc(Cn2c(-c3cccnc3OCC3CCCC3)nc3cc(F)c(F)cc32)cc1 [Example 18, 3-{4-[2-(2-Cyclopentylmethoxy-pyridin-3-yl)-5,6-difluoro-benzoimidazol-1-ylmethyl]-phenyl}-propionic acid]",30400 nM
19,"Fc1cc2nc(-c3ccc(Cl)cc3OCc3ccccc3Cl)n(CC3CCCCC3)c2cc1F [Example 19, 2-[4-Chloro-2-(2-chloro-benzyloxy)-phenyl]-1-cyclohexylmethyl-5,6-difluoro-1H-benzoimidazole]",300 nM
20,"Fc1cc2nc(-c3ccc(Cl)cc3OCC3CCCC3)n(CC3CCCCC3)c2cc1F [Example 20, 2-(4-Chloro-2-cyclopentylmethoxy-phenyl)-1-cyclohexylmethyl-5,6-difluoro-1H-benzoimidazole]",200 nM
21,"Fc1cc2nc(-c3ccc(Cl)cc3OCC3CC3)n(CC3CCCCC3)c2cc1F [Example 21, 2-(4-Chloro-2-cyclopropylmethoxy-phenyl)-1-cyclohexylmethyl-5,6-difluoro-1H-benzoimidazole]",300 nM
22,"Fc1cc2nc(-c3ccc(Cl)cc3OCC3CCCCC3)n(CC3CCCCC3)c2cc1F [Example 22, 2-(4-Chloro-2-cyclohexylmethoxy-phenyl)-1-cyclohexylmethyl-5,6-difluoro-1H-benzoimidazole]",200 nM
23,"O=C(O)c1ccc(COc2cc(Cl)ccc2-c2nc3cc(F)c(F)cc3n2CC2CCCCC2)cc1 [Example 23, 4-[5-Chloro-2-(1-cyclohexylmethyl-5,6-difluoro-1H-benzoimidazol-2-yl)-phenoxymethyl]-benzoic acid]",200 nM
24,"O=C(O)c1cccc(COc2cc(Cl)ccc2-c2nc3cc(F)c(F)cc3n2CC2CCCCC2)c1 [Example 24, 3-[5-Chloro-2-(1-cyclohexylmethyl-5,6-difluoro-1H-benzoimidazol-2-yl)-phenoxymethyl]-benzoic acid]",700 nM
25,"O=C(O)COc1ccc(COc2cc(Cl)ccc2-c2nc3cc(F)c(F)cc3n2CC2CCCCC2)cc1 [Example 25, {4-[5-Chloro-2-(1-cyclohexylmethyl-5,6-difluoro-1H-benzoimidazol-2-yl)-phenoxymethyl]-phenoxy}-acetic acid]",100 nM
26,"O=C(O)CCCCCOc1cc(Cl)ccc1-c1nc2cc(F)c(F)cc2n1CC1CCCCC1 [Example 26, 6-[5-Chloro-2-(1-cyclohexylmethyl-5,6-difluoro-1H-benzoimidazol-2-yl)-phenoxy]-hexanoic acid]",2100 nM
27,"O=C(O)c1ccc(CCOc2cc(Cl)ccc2-c2nc3cc(F)c(F)cc3n2CC2CCCCC2)cc1 [Example 27, 4-{2-[5-Chloro-2-(1-cyclohexylmethyl-5,6-difluoro-1H-benzoimidazol-2-yl)-phenoxy]-ethyl}-benzoic acid]",500 nM
